Each structure is given as a SMILES string. Entries after “also recorded” stand apart in the source; their conditions may differ. Read-outs that look alike come from different tables or passages of the source.

Data set [1] deals with tactile allodynia (paw withdrawal thresholds). Nature of the data set: Mechanical allodynia after single i.p. dose in DA rats (left L5/L6 spinal nerve ligation). It is filed as in vivo.
For data set [2] the following is noted: cited from earlier work.
The conditions of data set [3]: DA rats; some species of rats; cited from earlier work.
The test system of data set [4] is tactile allodynia (paw withdrawal thresholds). Nature of the data set: Tactile allodynia (50% paw withdrawal threshold, von Frey) after intrathecal drug, L5/L6 spinal nerve ligated rats. It is filed as in vivo, Male Harlan Sprague-Dawley rats. The procedure: Male Harlan Sprague-Dawley rats were used (100-200 g). Rats were housed 2-3 to a cage with corn cob bedding and Purina rat chow and water ad libitum, in a standard facility with a 12 h/ 12 h day/night cycle. After surgical procedures involving chronic indwelling catheter insertion, animals were housed singly to prevent catheter damage.
Rats were allowed to recover 5-7 days before further testing or surgeries.
The catheters were 9 cm in intrathecal length and terminated near the lumbar enlargement. The rostral 3 cm of catheter was tunneled under the skin to externalize between the ears. Rats with neurologic deficits were discarded.
Monoethylglycinexylidide (MEGX) was dissolved in physiologic saline; 3-hydroxylidocaine (3-OH L) was dissolved in DMSO for intravenous administration.
Intravenous drugs were delivered to awake, unrestrained rats by slow infusion using a syringe pump (Harvard apparatus 22). Intrathecal drugs were delivered to awake, briefly restrained rats in a volume of 10 μl, followed by 10 μl of vehicle flush, using a calibrated tubing extension with a 30-gauge adapter fitting the implanted intrathecal catheter, attached to a geared Hamilton 100 μl glass syringe. IT drug delivery was monitored by observing the advancement of a small air bubble down the tubing.
Rats were placed in a plastic cage with an open wire mesh bottom and allowed to accommodate for approximately fifteen minutes. […] In brief, von Frey hairs were sequentially applied using an up-and-down paradigm to the left mid-plantar hindpaw with sufficient force to cause slight filament buckling. Positive responses were noted if the paw was sharply withdrawn. […] Otherwise, PWT were calculated by noting the stimulus level at which the first change in behavior occurred, collecting four additional responses to the continued up-and-down oscillation of stimulus presentation around the response threshold, and interpolating the 50% response threshold. […] The following equation was used to compute %MPE: [formula]
Plasma drug levels and PWT were correlated using linear regression. Serially measured PWT and %MPE were compared using repeated measures ANOVA.

The test system is the same in data set [5]. Nature of the data set: Mechanical allodynia after single i.p. dose in SD rats (left L5/L6 spinal nerve ligation). The format is in vivo.
A further data set in a line: Solubility. It is filed as physicochemical. Conditions: IT vehicle 10% DMSO, 25% propylene glycol, 25% ethanol, 40% saline; injected volume 10 μl. From the text: The free base forms of the compounds of general formula I are not water-soluble; for example, it was necessary to dissolve the free base of 3-hydroxylidocaine in a vehicle containing an empirically determined mixture of ethanol, dimethyl sulfoxide, propylene glycol and saline for application to the rat spinal cord. The physiologically-acceptable salt forms of the compounds of general formula I employed in accordance with the present invention, in contrast, are generally water-soluble to at least some degree, and the solubility properties thereof can be in many cases improved by conjugation. Unlike the free base forms of the compounds of general formula I, the salt forms may be administered by a variety of known routes [e.g., oral intravenous, intrathecal, local (e.g., intraneuromal), epidural, transdermal, etc.] as would be readily appreciated by those skilled in the art. As is conventional practice in the art, the active agent of general formula I is typically administered in a pharmaceutically acceptable carrier or excipient (e.g., saline).

Data set [6] concerns tactile allodynia (paw withdrawal thresholds). Nature of the data set: Tactile allodynia (50% paw withdrawal threshold, von Frey) after intravenous drug, L5/L6 spinal nerve ligated rats. The format is in vivo, Male Harlan Sprague-Dawley rats. From the text: For intravascular access, external jugular catheters were fashioned from PE-50 tubing and inserted into an external jugular vein under halothane/oxygen anesthesia. Arterial catheters were also fashioned from PE-50 with a small bouton 1 cm from the intravascular end for suture securing; they were inserted into a carotid artery, taking care to spare the surrounding nerves. All catheters were flushed with heparinized saline (10 U/ml) and tunneled subcutaneously to emerge at the posterior base of the neck, and capped when not in use. […] Rats were placed in a plastic cage with an open wire mesh bottom and allowed to accommodate for approximately fifteen minutes. A series of 8 von Frey filaments with logarithmically incremental stiffness (0.41, 0.70, 1.20, 2.00, 3.63, 5.50, 8.50, and 15.10 g) (Stoelting, Wood Dale, Ill.) was used to determine the 50% threshold for paw withdrawal to light mechanical stimuli (PWT). In brief, von Frey hairs were sequentially applied using an up-and-down paradigm to the left mid-plantar hindpaw with sufficient force to cause slight filament buckling. Positive responses were noted if the paw was sharply withdrawn. […] Otherwise, PWT were calculated by noting the stimulus level at which the first change in behavior occurred, collecting four additional responses to the continued up-and-down oscillation of stimulus presentation around the response threshold, and interpolating the 50% response threshold. […] The following equation was used to compute %MPE: [formula] Plasma drug levels and PWT were correlated using linear regression. Serially measured PWT and %MPE were compared using repeated measures ANOVA.

Another data set concerns P450 PA(P45OIA2) enzyme. To be noted: lidocaine metabolite formation; cited from earlier work.

On to `CCN(CC)CC(=O)Nc1c(C)ccc(O)c1C` [3-OH L, 3-hydroxylidocaine], for which, in data set [1] (3-OHL 15 mg/kg i.p., N=5, P<0.002, followed for 7 days), the “duration of significant effect on allodynia, DA rats” value was “up to 7 days”. For the same compound, the “effect on tactile allodynia, DA rats” value in data set [1] (single i.p. dose, lidocaine 60 mg/kg, 3-OHL 15 mg/kg (P<0.002)) is recorded as “persistently reduced allodynia in both strains; also recorded: persistent suppression of allodynia”. Further, the entries for the “production of 3-OH L in humans” value in data set [2] and in data set [2] (listed as 3-OHL) were “humans do produce some 3-OH L” and “very small quantities”, respectively. Moreover, the “3-hydroxylation / production of 3-OH L in rats” value in data set [3] is given as “Some species of rats predominantly produce 3-OH L”. The “persistence of allodynia suppression after single IT dose” value in data set [4] (3-OH L 58 μg IT single dose, follow-up period) amounted to 5 days. Further, the “thresholds at 5 days post treatment” value in data set [4] (3-OH L 58 μg IT, N=6, baseline 2.7±0.2, vehicle 2.2±0.5, P=0.0008, unit not given) amounted to 9.3±2.5. Moreover, the “PWT at 60 minutes after IT treatment” value in data set [4] (3-OH L 58 μg IT, baseline 2.3±0.39 g, P<0.0001) was found to be 10.66 ± 2.3 g. The “duration of effect on allodynia, IT route” value in data set [4] (IT) is recorded as “long lasting effect by the IT route”. In addition, the “effect on allodynia thresholds after IT delivery” value in data set [4] (IT, lidocaine 500 μg, MEGX 500 μg, 3-OH L 58 μg) is “suppressed allodynia after IT administration; also recorded: significantly effective at suppressing allodynia”. Further, the “duration of significant effect on allodynia, SD rats” value in data set [5] (3-OHL 15 mg/kg i.p., N=6, P<0.05, followed for 7 days) is given as “up to 7 days”. The “magnitude and duration of effect of 15 mg/kg 3-OHL relative to 60 mg/kg lidocaine in SD rats” value in data set [5] (i.p. (FIG. 7)) was “apparently shorter duration”. Also, in data set [5] (single i.p. dose, lidocaine 60 mg/kg, 3-OHL 15 mg/kg (P<0.05)), the “effect on tactile allodynia, SD rats” value is listed as “persistently reduced allodynia in both strains; also recorded: persistent suppression of allodynia”. For the same compound, the “highest dose soluble in the vehicle” value in the data set “Solubility” is 58 µg. For the same compound, in data set [6] (3-OH L IV in DMSO, 20 mg/kg total (FIG. 2), N=4, baseline 1.57±0.5 g, P=<0.0001), the PWT after infusion is 15 ± 0 g. Further, the “duration of effect on allodynia, IV route” value in data set [6] (IV) was “not by the IV route”. Besides, the “potency and onset of allodynia suppression relative to lidocaine” value in data set [6] (IV 3-OH L compared with parent compound) is “more potent with regard to this effect; also recorded: far more rapid onset”. Further, the “allodynia suppression by IV delivery” value in data set [6] (IV, N=4) was “highly active when administered intravenously; also recorded: both potent and effective at suppressing allodynia; also recorded: complete normalization”. Also, the “enzyme producing the metabolite 3-OH L” value in the data set on P450 PA(P45OIA2) enzyme was “produced by the P450 PA(P45OIA2) enzyme”.

Values taken from patent US5849737A, “Compositions and methods for treating pain” (priority 1995, dated 1998).
